From paper PMC4373826, “Antiviral Effect of Methylated Flavonol Isorhamnetin against Influenza” (PLoS ONE, 2015)

Tests used:
[1] = system: LC3B; experiment: Western blot for LC3B lipidation; type: cell-based, canine; conditions: 50 μM; post-treatment
From the text: Autophagy can also be measured by changes in LC3B localization, because the degree of conversion of LC3B-I to LC3B-II provides an indicator of autophagic activity. Western blotting detected LC3B as 2 bands: cytosolic LC3B-I and membrane-bound LC3B-II (which is bound to the autophagosome membrane). The molecular weight of LC3B-II is greater than that of LC3B-I. However, due to its hydrophobicity, LC3B-II migrates faster in SDS-PAGE, and therefore, has a lower apparent molecular weight.
To prepare whole-cell extracts, cells were washed 3 times using cold PBS, scraped from the dishes, and suspended in protein extraction buffer containing 1% Triton X-100 (Amresco), 100 mM Tris-HCl, 10 mM NaCl, 10% glycerol, 1 mM sodium orthovanadate (Sigma-Aldrich), 50 mM sodium fluoride (Sigma-Aldrich), and 1 mM phenylmethylsulfonyl fluoride (PMSF; Sigma-Aldrich). After incubation on ice for 30 min, lysates were centrifuged and proteins in the supernatants were quantified using the Bradford Protein Assay Reagent (Bio-Rad). Protein samples were separated via 10% SDS-PAGE and transferred to nitrocellulose membranes ([…]; Protran, Newton, NJ, USA). The membranes were blocked using 5% nonfat dry milk and 0.1% Tween-20 in Tris-buffered saline and probed with the primary antibody. […]

[2] = system: Atg-5, Atg-7, and LC3B; experiment: RT-PCR of autophagy-related genes; type: cell-based, canine; conditions: 50 μM
Procedure: MDCK cells were seeded in 6-well plates and incubated overnight for 80% confluence. After the medium was removed, the cells were washed twice with PBS and infected with the virus as described in the antiviral assay section. Total RNA was isolated using Trizol (Invitrogen, Waltham, MA, USA) according to the manufacturer’s instructions. Synthesis of cDNA was performed using 5 μg of total RNA with MMLV reverse transcriptase (Promega, Madison, WI, USA). The primer sequences used in our study were as follows: HA (forward, 5′-[…]-3′;reverse,5′-[…]-TGACACT-3′); NA (forward, 5′-[…]-3′; reverse,5′-[…]-3); ATG-5 (forward, 5′-[…]-AACAG-3′; reverse, 5′-[…]-3′); ATG-7 (forward, 5′-[…]-3′; reverse, 5′-[…]-A-3′); LC3B (forward, 5′-[…]-3′; reverse, 5′-CTGG-[…]-3′); and GAPDH (forward, 5′-[…]-GGAGC-3′; reverse, 5′-[…]-3′).The expression of mRNA was normalized to that of the control housekeeping gene, GAPDH.

[3] = system: influenza A/PR/8/34 (H1N1); type: cell-based, influenza A virus; conditions: post-treatment 48 hr
[4] = system: influenza A/PR/8/34 (H1N1) virus particles, chicken RBCs; conditions: lowest concentration
[5] = system: influenza viral genes HA and NA; experiment: RT-PCR of viral HA and NA genes; type: cell-based, influenza A virus
[6] = system: virus-induced ROS generation in MDCK cells; experiment: Virus-induced ROS generation assay (H2DCFDA); type: cell-based, canine; conditions: 50 μM
Procedure: For the ROS generation assay, MDCK cells were seeded onto 24-well plates and incubated overnight for 80% confluence. The MDCK cells were infected with the virus as described previously and then treated with the flavonoids (post-treatment method). Intracellular ROS levels were detected using a cell-permeable oxidant-sensitive fluorescent probe, 2′, 7′-dichiorofluorescin diacetate (H2DCFDA, Molecular Probes, Eugene, OR, USA). The cells were incubated with 10 μM of H2DCFDA for 30 min at 37°C in the dark. After incubation, the cells were washed twice and covered with PBS. The average ROS generation was determined by fluorescent images that were captured using Nikon Eclipse TE2000-U fluorescence inverted microscope (Nikon, Tokyo, Japan). In this experiment, we used N-acetyl-L-cysteine (NAC; Sigma-Aldrich), a ROS scavenger reagent, and at a concentration of 15 mM as a positive control treatment.

[7] = system: ERK; experiment: Western blot for ERK phosphorylation; type: cell-based, canine; conditions: 50 μM
Procedure: To prepare whole-cell extracts, cells were washed 3 times using cold PBS, scraped from the dishes, and suspended in protein extraction buffer containing 1% Triton X-100 (Amresco), 100 mM Tris-HCl, 10 mM NaCl, 10% glycerol, 1 mM sodium orthovanadate (Sigma-Aldrich), 50 mM sodium fluoride (Sigma-Aldrich), and 1 mM phenylmethylsulfonyl fluoride (PMSF; Sigma-Aldrich). After incubation on ice for 30 min, lysates were centrifuged and proteins in the supernatants were quantified using the Bradford Protein Assay Reagent (Bio-Rad). Protein samples were separated via 10% SDS-PAGE and transferred to nitrocellulose membranes ([…]; Protran, Newton, NJ, USA). The membranes were blocked using 5% nonfat dry milk and 0.1% Tween-20 in Tris-buffered saline and probed with the primary antibody. Western blotting was performed using antibodies against t-ERK, p-ERK, actin (Santa Cruz Biotechnology, Dallas, TX, USA), and LC3B (Novus Biologicals, San Diego, CA, USA), as well as anti-mouse, anti-rabbit, and anti-goat IgG-peroxidase-conjugated secondary antibodies (Santa Cruz Biotechnology) and an enhanced chemiluminescence (ECL) kit (Amersham Biosciences, Piscataway, NJ, USA).

[8] = system: influenza A/PR/8/34 (H1N1); experiment: In vivo antiviral assay in infected mice; set-up: species or system C57BL/6 mice
Procedure: Six-week-old female C57BL/6 mice purchased from KOATECH (Pyeongtaek, South Korea) infected with the PR8 influenza strain (A/PR/8/34, H1N1). After anesthesia, mice were inoculated with 4.25 log10EID50/mL (5 MLD50/mice) in 30 μL sterile PBS via the intranasal route. Two hours post-infection, each group (13 mice) received the following compounds: (1) Tamiflu capsules were dissolved in PBS at a concentration of 10mg/kg and then centrifuged at 1,000rpm/10minutes for removal of the filler. From this solution 200 μL was administered per day orally for 5 days, or (2) flavonoid (Isorhamnetin) was initially dissolved in 0.2% DMSO and then diluted in PBS to a final concentration of 1 mg/kg and less than 0.2% DMSO. This mixture mixed will by vortex and 30 μL of this mixture was administered per day via the intranasal route for 5 days.
One week after infection, the lungs of 3 mice per group were collected for the virology analysis. Lung tissues were excised, homogenized using a homogenizer (Tissue Lyser, Qiagen, Valencia, CA, USA), and centrifuged (2,000 g for 5 min). Ten-fold serial dilutions of the supernatant from the lung homogenate samples were subjected to the virology assays for virus titer determination. Lung homogenates were injected into the allantoic sac of 10-day-old embryonated eggs, which were incubated at 37°C for 48 hr, after which the allantoic fluid was harvested. The virus titer in the allantoic fluid was assessed using the HA assay. The virus titer (EID50/mL) in the fluid was calculated based on the method of Reed and Muench. For the assessments of body weight and survival rate, mice were observed daily for 14 days and monitored for clinical signs.

[9] = system: influenza A/PR/8/34 (H1N1); experiment: in vitro; conditions: dog, SI (selective index, CC50/EC50)
[10] = infected mice, abstract says oral administration

Structure (SMILES): COc1cc(-c2oc3cc(O)cc(O)c3c(=O)c2O)ccc1O [Isorhamnetin, isorhamnetin]
- lipidation of LC3B-II [1]: significantly suppressed
- virus-induced overexpression of autophagy-related genes Atg-5, Atg-7, and LC3B [2]: inhibited
- virus titer in HA assay (virus yield reduction) [3]: almost completely suppressed
- hemolysis of chicken RBCs by the virus particle (HI assay) [4]: significantly inhibited
- expression of HA and NA [5]: markedly decreased
- virus-induced ROS generation [6]: significant reduction
- virus-induced ERK phosphorylation [7]: significantly suppressed
- toxic effect in mice ([8]; data not shown): no significant toxic effect
- survival rate ([8]; infected mice, observed 14 days): 70–80%
- decrease in body weight loss [8, 10]: 25%
- decrease in lung virus titer [8, 10]: 2 folds
- body weight loss ([8]; vs PBS control group, 14 days): reduced body weight loss
- selectivity ratio ([9]; Co-treatment (2 hr)): > 9
- selectivity ratio ([9]; Post-treatment): > 12
